Test results published in PubChem BioAssay (NCI).
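Protocol summary: plate cells (96-well), add compound at 5 concentrations, incubate 48 h, interpolate endpoints linearly. Here, GI50 denotes the concentration required for 50% inhibition of growth. TGI is the concentration that stops growth completely.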

Columns and labels:
Assay in all cases: growth of human tumour cells (NCI), 48 h
SK-MEL-5 melanoma = tested on: SK-MEL-5 melanoma
A498 renal = tested on: A498 renal
OVCAR-4 ovarian = tested on: OVCAR-4 ovarian
UACC-62 melanoma = tested on: UACC-62 melanoma
MALME-3M melanoma = tested on: MALME-3M melanoma
SK-MEL-2 melanoma = tested on: SK-MEL-2 melanoma
DU-145 prostate = tested on: DU-145 prostate
TK-10 renal = tested on: TK-10 renal
KM12 colon = tested on: KM12 colon
RXF 393 renal = tested on: RXF 393 renal
SW-620 colon = tested on: SW-620 colon
SNB-75 CNS = tested on: SNB-75 CNS
EKVX NSCLC = tested on: EKVX NSCLC
SNB-19 CNS = tested on: SNB-19 CNS
MCF7 breast = tested on: MCF7 breast
NCI-H23 lung = tested on: NCI-H23 lung
SK-OV-3 ovarian = tested on: SK-OV-3 ovarian
COLO 205 colon = tested on: COLO 205 colon
HOP-92 NSCLC = tested on: HOP-92 NSCLC
NCI-H226 lung = tested on: NCI-H226 lung
MDA-MB-468 breast = tested on: MDA-MB-468 breast
HS 578T breast = tested on: HS 578T breast
LOX IMVI melanoma = tested on: LOX IMVI melanoma
UO-31 renal = tested on: UO-31 renal
HCT-15 colon = tested on: HCT-15 colon
SK-MEL-28 melanoma = tested on: SK-MEL-28 melanoma
SF-268 CNS = tested on: SF-268 CNS
MDA-MB-231 breast = tested on: MDA-MB-231 breast
M14 melanoma = tested on: M14 melanoma
PC-3 prostate = tested on: PC-3 prostate
NCI-H460 lung = tested on: NCI-H460 lung
HL-60(TB) leukemia = tested on: HL-60(TB) leukemia
UACC-257 melanoma = tested on: UACC-257 melanoma
ACHN renal = tested on: ACHN renal
NCI-H522 lung = tested on: NCI-H522 lung
SR leukemia = tested on: SR leukemia
HCC-2998 colon = tested on: HCC-2998 colon
OVCAR-5 ovarian = tested on: OVCAR-5 ovarian
K-562 leukemia = tested on: K-562 leukemia
SF-295 CNS = tested on: SF-295 CNS
NCI/ADR-RES ovarian = tested on: NCI/ADR-RES ovarian
SF-539 CNS = tested on: SF-539 CNS
BT-549 breast = tested on: BT-549 breast
T-47D breast = tested on: T-47D breast
SN12C renal = tested on: SN12C renal
IGROV1 ovarian = tested on: IGROV1 ovarian
CAKI-1 renal = tested on: CAKI-1 renal
MOLT-4 leukemia = tested on: MOLT-4 leukemia
HOP-62 NSCLC = tested on: HOP-62 NSCLC

## O=C(CSc1nnc(-c2ccc3nc(-c4ccc(Cl)cc4)[nH]c3c2)o1)Nc1ccc(Cl)cc1
SK-MEL-5 melanoma
  GI50: 1.97 µM
  TGI: 4.2 µM
A498 renal
  GI50: 12.3 µM
  TGI: 26.4 µM
OVCAR-4 ovarian
  GI50: 2.61 µM
  TGI: 7.73 µM
UACC-62 melanoma
  GI50: 1.56 µM
  TGI: 3.37 µM
MALME-3M melanoma
  GI50: 1.86 µM
  TGI: 4.07 µM
SK-MEL-2 melanoma
  GI50: 2.53 µM
  TGI: 7.08 µM
DU-145 prostate
  GI50: 2.53 µM
  TGI: 6.35 µM
TK-10 renal
  GI50: 10.3 µM
  TGI: 26.5 µM
KM12 colon
  GI50: 2.78 µM
  TGI: 27 µM
RXF 393 renal
  GI50: 1.59 µM
  TGI: 3.7 µM
SW-620 colon
  GI50: 2.18 µM
  TGI: 5.72 µM
SNB-75 CNS
  GI50: 1.75 µM
  TGI: 5.58 µM
EKVX NSCLC
  GI50: 2.04 µM
  TGI: 6.43 µM
SNB-19 CNS
  GI50: 2.04 µM
  TGI: 4.52 µM
MCF7 breast
  GI50: 1.76 µM
  TGI: 4.08 µM
NCI-H23 lung
  GI50: 1.65 µM
  TGI: 3.24 µM
SK-OV-3 ovarian
  GI50: 3.89 µM
  TGI: 14.1 µM
COLO 205 colon
  GI50: 3.52 µM
  TGI: 28.5 µM
HOP-92 NSCLC
  GI50: 2.33 µM
  TGI: 6.86 µM
NCI-H226 lung
  GI50: 1.72 µM
  TGI: 4.33 µM
MDA-MB-468 breast
  GI50: 2.41 µM
  TGI: 6.19 µM
HS 578T breast
  GI50: 2.43 µM
  TGI: 8.1 µM
LOX IMVI melanoma
  GI50: 1.54 µM
  TGI: 2.88 µM
UO-31 renal
  GI50: 1.61 µM
  TGI: 4.02 µM
HCT-15 colon
  GI50: 1.37 µM
  TGI: 3.18 µM
SK-MEL-28 melanoma
  GI50: 1.94 µM
  TGI: 4.22 µM
SF-268 CNS
  GI50: 3.18 µM
  TGI: 77.9 µM
MDA-MB-231 breast
  GI50: 1.66 µM
  TGI: 3.11 µM
M14 melanoma
  GI50: 2.11 µM
  TGI: 5.01 µM
PC-3 prostate
  GI50: 2.44 µM
  TGI: 7.99 µM
NCI-H460 lung
  GI50: 1.77 µM
  TGI: 3.38 µM
HL-60(TB) leukemia
  GI50: 2.43 µM
  TGI: 7.59 µM
UACC-257 melanoma
  GI50: 2.4 µM
  TGI: 6.24 µM
ACHN renal
  GI50: 1.51 µM
  TGI: 3.19 µM
NCI-H522 lung
  GI50: 2.05 µM
  TGI: 5.61 µM
SR leukemia
  GI50: 3.6 µM
  TGI: > 100 µM
HCC-2998 colon
  GI50: 3.63 µM
  TGI: 14.4 µM
OVCAR-5 ovarian
  GI50: 8.68 µM
  TGI: 23.9 µM
K-562 leukemia
  GI50: 2.89 µM
  TGI: > 100 µM
SF-295 CNS
  GI50: 1.64 µM
  TGI: 3.14 µM
NCI/ADR-RES ovarian
  GI50: 2.55 µM
  TGI: 6.92 µM
SF-539 CNS
  GI50: 1.55 µM
  TGI: 2.9 µM
BT-549 breast
  GI50: 2.33 µM
  TGI: 5 µM
T-47D breast
  GI50: 7.07 µM
  TGI: 68.2 µM
SN12C renal
  GI50: 1.69 µM
  TGI: 3.19 µM
IGROV1 ovarian
  GI50: 2.24 µM
  TGI: 7.98 µM
CAKI-1 renal
  GI50: 1.62 µM
  TGI: 3.79 µM
MOLT-4 leukemia
  GI50: 2.6 µM
  TGI: > 100 µM
HOP-62 NSCLC
  GI50: 2.3 µM
  TGI: 5.46 µM
